According to US5650428A, “Arylsulfonamide derivative and pharmaceutical compositions and use thereof” (NKK Corporation, priority 1993, dated 1997):

Legend:
[1] = target: T1, isolated rat artery (thoracic aorta) (Rattus norvegicus, UniProt P34978); experiment: Inhibitory activity of vasoconstriction of isolated rat artery; assay type: cell-based; conditions: pA2; rat thoracic aorta ring preparation, 37° C.; read-out: B: Inhibitory activity of vasoconstriction (rat artery) (pA2) (converted)
T1 construct: the thoracic aorta was quickly removed; from tissue; host or cells: thoracic aorta rings of male Wistar rats, endothelium 'gently cleaned'
T1 sequence (P34978 1-341): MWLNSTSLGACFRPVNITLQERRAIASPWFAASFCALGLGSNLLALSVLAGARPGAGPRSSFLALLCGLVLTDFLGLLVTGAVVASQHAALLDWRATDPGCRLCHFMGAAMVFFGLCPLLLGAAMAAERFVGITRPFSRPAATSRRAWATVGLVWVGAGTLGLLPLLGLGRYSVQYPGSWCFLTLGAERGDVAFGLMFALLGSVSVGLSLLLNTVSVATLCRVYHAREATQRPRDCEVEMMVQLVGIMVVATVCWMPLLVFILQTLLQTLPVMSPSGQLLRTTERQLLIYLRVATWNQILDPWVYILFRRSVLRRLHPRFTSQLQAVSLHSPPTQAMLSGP
Procedure: (2) Inhibitory Activity of Vasoconstriction of Isolated Rat Artery
Rats (Wistar; male; body weight=250-300 g) were stunned by a blow to the head and exsanguinated. Then, the thoracic aorta was quickly removed, and the connective tissue and the endothelium were gently cleaned and then ring preparation was cut. The preparations were suspended in a 25 ml organ bath which was maintained at 37° C. under an aeration of 95% O2 -5% CO2. An initial tension of 1.5 g was applied and preincubation was performed for 60 minutes. The organ bath was filled with Krebs-Henselait solution (NaCl=118, KCl=4.7, CaCl2 2.55, MgSO4 =1.18, KH2 PO4 =1.18, NaHCO3 =24.88, glucose=11.1). The constriction of the samples was ionotropicaly measured using an isometric transducer (UL-10GR, Minebea) and an amplifier (6M92, NEC SANEI) and recorded by a recticorder (RECTI-HORIZ-8K, NEC SANEI).

[2] = target: T2, thromboxane A2 (TxA2) receptor (Cavia porcellus, UniProt A0A286Y4I8); experiment: TxA2 antagonist action by binding assay; conditions: washed guinea pig platelets, 1 nM [3H]-SQ29,548, 45 minutes at 25° C.
T2 construct: to obtain washed platelets; from tissue; host or cells: washed platelets of male Hartley guinea pigs
T2 sequence (A0A286Y4I8 1-347): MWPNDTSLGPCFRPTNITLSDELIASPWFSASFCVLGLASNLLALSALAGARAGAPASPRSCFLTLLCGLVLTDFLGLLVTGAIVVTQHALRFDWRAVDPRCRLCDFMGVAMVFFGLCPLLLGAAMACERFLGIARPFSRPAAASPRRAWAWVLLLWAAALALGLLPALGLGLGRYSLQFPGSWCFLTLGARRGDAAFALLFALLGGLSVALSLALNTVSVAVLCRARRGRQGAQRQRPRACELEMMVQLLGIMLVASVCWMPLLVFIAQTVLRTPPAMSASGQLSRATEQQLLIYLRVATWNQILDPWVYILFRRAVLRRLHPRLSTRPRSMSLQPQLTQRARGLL
Method in brief: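 Washed platelets from male Hartley guinea pigs, 4×10^8 cells/ml, were incubated with test compound and a labelled ligand for 45 minutes at 25 °C. Bound radioactivity was collected by GF/B filtration and scintillation counting; IC50 came from binding/control-binding ratio.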

rat platelet = experiment: Inhibitory activity of aggregation in rat platelet; assay type: cell-based; conditions: rat platelet rich plasma, arachidonic acid (final concentration 0.5 mM) as inducer; read-out: C: Inhibitory activity of aggregation in rat platelet (IC50; μM)
Method in brief: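 Platelet-rich plasma was prepared from citrated (0.38% final) rat abdominal arterial blood and preincubated 1 min at 37°C. Compound was added 2 min before arachidonic acid (0.5 mM final). Light transmission change was recorded for 5 min.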

SMILES | Kb [1] [nM] | IC50 [2] [µM] | IC50 (rat platelet) [µM]
O=C(O)c1ccc(NC(=O)C(COC2CCCCO2)NS(=O)(=O)c2ccc(Cl)cc2)cc1 (racemic) [Example 40, (RS)-N-(4-carboxyphenyl)-2-(4-chlorobenzenesulfonylamino)-3-(tetrahydropyran-2-yloxy)propanamide] | 28.8 | 0.5 | 0.52
O=C(O)Cc1ccc(NC(=O)C(COC2CCCCO2)NS(=O)(=O)c2ccc(Cl)cc2)cc1 (racemic) [Example 41, (RS)-N-(4-(carboxymethyl)phenyl)-2-(4-chlorobenzenesulfonylamino)-3-(tetrahydropyran-2-yloxy)propanamide] | 6.92 | 0.057 | 0.18
O=C(O)CCc1ccc(NC(=O)C(COC2CCCCO2)NS(=O)(=O)c2ccc(Cl)cc2)cc1 (racemic) [Example 42, (RS)-N-(4-(2-carboxyethyl)phenyl)-2-(4-chlorobenzenesulfonylamino)-3-(tetrahydropyran-2-yloxy)propanamide] | 12.9 | 0.088 | 0.54
O=C(O)c1cccc(NC(=O)C(COC2CCCCO2)NS(=O)(=O)c2ccc(Cl)cc2)c1 (racemic) [Example 44, (RS)-N-(3-carboxyphenyl)-2-(4-chlorobenzenesulfonylamino)-3-(tetrahydropyran-2-yloxy) propanamide] | 32.4 | 0.4 | 0.3
O=C(O)Cc1ccc(NC(=O)C(COC2CCCCO2)NS(=O)(=O)c2ccc(Br)cc2)cc1 (racemic) [Example 54, (RS)-2-(4-bromobenzenesulfonylamino)-N-(4-(carboxymethyl)phenyl)-3-(tetrahydropyran-2-yloxy)propanamide] | 5.89 | 0.033 | 0.17
O=C(O)Cc1ccc(NC(=O)C(COC2CCCCO2)NS(=O)(=O)c2ccc(I)cc2)cc1 (racemic) [Example 55, (RS)-N-(4-(carboxymethyl)phenyl)-2-(4-iodobenzenesulfonylamino)-3-(tetrahydropyran-2-yloxy)propanamide] | 3.8 | 0.016 | 0.53
O=C(O)COc1ccc(CCNS(=O)(=O)c2ccc(Cl)cc2)cc1 [Control Compound, 4-[2-(4-chlorobenzenesulfonylamino)ethyl]-phenoxy acetic acid, reference compound] | 126 | 2 | 1.7
O=C(O)c1ccc(NC(=O)[C@H](COC2CCCCO2)NS(=O)(=O)c2ccc(Cl)cc2)cc1 (stereo partly drawn) [Example 39, (S)-N-(4-carboxyphenyl)-2-(4-chlorobenzenesulfonylamino)-3-(tetrahydropyran-2-yloxy)propanamide] | 12.6 | 0.2 | –
O=C(O)c1cccc(NC(=O)[C@H](COC2CCCCO2)NS(=O)(=O)c2ccc(Cl)cc2)c1 (stereo partly drawn) [Example 43, (S)-N-(3-carboxyphenyl)-2-(4-chlorobenzenesulfonylamino)-3-(tetrahydropyran-2-yloxy)propanamide] | 41.7 | – | –
